# Patent US20210263015A1, “MEASUREMENT METHOD” (priority 2018, published 2021)
# Assays:
# Assay type in all cases: cell-based
# [1] = system: Cerebral cortex neurons derived from human iPS cells; assay: Neural activity propagation in neural network of nerve cell device on MEA (4-AP)
# Source text: FIG. 3 is a diagram showing the results of measuring by MEA (16 channels) the effect of 4-aminopyridines (4-AP) on the propagation speed of action potential in a neural network included in a nerve cell device. (A) is a raster plot diagram of the electrical signal measured by MEA after the addition of DMSO (upper figure) or 4-AP (lower figure). (B) is a diagram showing the results of measuring the time taken by the action potential in a neural network from the channel number 1 of the MEA to the channel number 16 (the channel at the diagonal of the MEA) after the addition of 4-AP (0.3, 1, and 3 μM) or DMSO and before the addition of the drug. The results are relative values in which the action potential arrival time in case of before the addition of the drug is taken as 100, and indicated by the average ±standard error (n=4). The decrease in the relative value of arrival time of action potential indicates an increase in the propagation speed of the action potential.
# An oriented PS fiber sheet obtained by mounting a stainless steel circular frame produced in Example 1 was hydrophilized by plasma treatment using a desktop plasma treatment apparatus (STREX Inc.), and then coated with poly-D-lysine and laminin. […] The nerve action potential and the propagation direction of the neural activity were measured. […]
# [2] = system: spinal motion neuron derived from human iPS cells
# [3] = system: Nerve cells derived from human iPS cells (XCL-1 neuron); assay: Neural activity propagation in neural network of nerve cell device on MEA (picrotoxin), XCL-1 neurons; conditions: picrotoxin 0.1-10 μm; XCL-1 neurons seeded at 3×10^5 or 9×10^5 cells/cm^2; relative to vehicle (DMSO)
# Description: (§1) FIG. 4 is a diagram showing the results obtained by measuring the effect of picrotoxin by changing its concentration on the propagation speed of action potential in a neural network included in a nerve cell device having a different cell seeding density. As nerve cells, XCL-1 neurons (Xcell Science, US) were seeded at density of 3×10^5 cells/cm^2 (A) and 9×10^5 cells/cm^2 (B) or cerebral cortex neurons derived from human iPS cells (Axol Bioscience, UK) were seeded at density of 8x10^5 cells/cm^2 (C) and 24×10^5 cells/cm^2 (D) and cultured for 6 weeks. The concentrations of picrotoxin were 0.1, 0.3, 1, 3 and 10 μM. The results are relative values in which the propagation speed of action potential in case of the addition of vehicle (DMSO, a solvent in the drug) is taken as 100, and indicated by the average ±standard error (A, n=3; B, n=6; C, n=2; D, n=4).
# (§2) An oriented PS fiber sheet obtained by mounting a stainless steel circular frame produced in Example 1 was hydrophilized by plasma treatment using a desktop plasma treatment apparatus (STREX Inc.), and then coated with poly-D-lysine and laminin. […] The nerve action potential was determined.
# [4] = system: Cerebral cortex neurons derived from human iPS cells; assay: Neural activity propagation in neural network of nerve cell device on MEA (picrotoxin), cerebral cortex neurons; conditions: picrotoxin 0.1-10 μm; cerebral cortex neurons seeded at 8×10^5 or 24×10^5 cells/cm^2; relative to vehicle (DMSO)
# Description: as §1, §2
molecule,measurement,setting,value
"Nc1ccncc1 [4-AP, 4-aminopyridin]",propagation speed of neural activity,"[1]; 4-AP 3 μM, channel 1 to channel 16 of MEA, DMSO 0.14 m/sec",0.39 m/sec
same,"propagation speed of neural activity, concentration dependence (relative action potential arrival time)","[1]; 4-AP 0.3, 1 and 3 μM, n=4",increase dependently with the concentration of 4-AP
"NC1=N[C@H](O)[C@H]2[C@H]3O[C@]4(O)O[C@@H]([C@@H](O)[C@@]2(N1)[C@@H]4O)[C@]3(O)CO [TTX, tetrodotoxin]",peak time of action potential,[2],delayed
picrotoxin,"propagation speed of action potential, concentration dependence",[3],an increase in propagation speed of a concentration-dependent action potential was observed
same,"propagation speed of action potential, concentration dependence",[4],an increase in propagation speed of a concentration-dependent action potential was observed
